Source: the NIST ThermoML archive (doi:10.1021/acs.jced.9b00310)
Numbers after ± are expanded uncertainties.

How the values were obtained:
[1] = Crystal; DSC
[2] = Molar enthalpy of transition or fusion; conditions: Crystal; DSC

CC(=O)c1c(C)c([N+](=O)[O-])c(C(C)(C)C)c([N+](=O)[O-])c1C [3',5'-dinitro-2',6'-dimethyl-4'-tert-butylacetophenone]
Triple point temperature [1]: 409.5 ± 1 K
Molar enthalpy of transition or fusion [2]: 5.69 ± 0.167 kcal/mol
